test system: sorbitol oxidase; experiment: Sorbitol oxidase activity determined by H2O2 produced, with various monosaccharides and derivatives as substrate; format: biochemical, Xanthomonas maltophilia TE3539; design: concentration or dose not given beside the values; details: substrate specificity; enzyme activity with respect to D-sorbitol set at 100
Procedure: First, the following reaction mixture is prepared.
The enzyme activity was determined in the case where various monosaccharides and derivatives thereof were used as a substrate. The value of enzyme activity with respect to D-sorbitol was set at 100.

Row | SMILES | Relative activity (%)
1 | OC[C@@H](O)[C@@H](O)[C@H](O)[C@@H](O)CO [D-sorbitol] | 100.00
2 | O[C@H]1[C@H](O)[C@@H](O)[C@H](O)[C@@H](O)[C@H]1O [Inositol] | 0.40
3 | OC[C@@H](O)[C@@H](O)[C@H](O)[C@H](O)CO [D-mannitol] | 86.60
4 | OC[C@@H](O)[C@H](O)[C@@H](O)CO [D-xylitol] | 89.90
5 | OCC(O)CO [Glycerol] | 3.50
6 | O=C[C@H](O)[C@@H](O)[C@@H](O)[C@H](O)CO [D-galactose] | 0.42
7 | OC[C@H]1O[C@H](O[C@H]2[C@H](O)[C@@H](O)C(O)O[C@@H]2CO)[C@H](O)[C@@H](O)[C@@H]1O (mixture of isomers) [Maltose] | 0.00
8 | OC[C@@H](O)C(O)[C@H](O)CO [D-arabitol] | 23.20
9 | O=C(CO)[C@@H](O)[C@H](O)[C@@H](O)CO [L-sorbose] | 10.60
10 | O=C(CO)[C@@H](O)[C@H](O)[C@H](O)CO [D-fructose] | 2.88
11 | O=C[C@H](O)[C@@H](O)[C@H](O)[C@H](O)CO [D-glucose] | 0.54
12 | Cl.N[C@H]1C(O)O[C@H](CO)[C@@H](O)[C@@H]1O (stereo partly drawn) [D-glucosamine hydrochloride] | 0.00
13 | O=C[C@@H](O)[C@@H](O)[C@H](O)[C@H](O)CO [D-mannose] | 1.01

test system: sorbitol oxidase; experiment: as above; format: biochemical, Xanthomonas maltophilia TE3539; details: with respect to sorbitol

Row | SMILES | Km [µM]
14 | OC[C@@H](O)[C@@H](O)[C@H](O)[C@@H](O)CO [D-sorbitol] | 600
